“Also recorded” adds a separate entry of the source. Read-outs that look alike come from different tables or passages of the source.
What was measured:
TAK1 [1] = molecular target: T1, TAK1 (Homo sapiens (Human), UniProt O43318); experiment: TAK1 kinase inhibition IC50 (TABLE 1; FIG. 1B selectivity screening); format: biochemical
Target sequence in this assay (O43318 31-303): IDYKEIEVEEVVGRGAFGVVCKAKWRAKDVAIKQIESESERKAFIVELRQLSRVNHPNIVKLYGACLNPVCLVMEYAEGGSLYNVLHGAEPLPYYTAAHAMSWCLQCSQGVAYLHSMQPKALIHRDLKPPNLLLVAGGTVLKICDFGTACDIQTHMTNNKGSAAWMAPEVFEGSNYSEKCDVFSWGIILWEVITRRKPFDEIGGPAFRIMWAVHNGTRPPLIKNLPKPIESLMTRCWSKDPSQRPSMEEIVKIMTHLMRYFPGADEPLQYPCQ
Target sequence in this assay (Q15750 468-497 partner): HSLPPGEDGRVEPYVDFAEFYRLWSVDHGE

IRAK4 = IRAK4 (Homo sapiens (Human), UniProt Q9NWZ3); experiment: IRAK4 kinase inhibition IC50 (TABLE 1; FIG. 1B selectivity screening); format: biochemical; details: for Ratio IC50 (IRAK4)/IC50 (TAK1): selectivity for TAK1 over IRAK4
[2] = tested on: Collagen Type II Induced Arthritis (CIA); experiment: CIA mouse model of inflammatory arthritis; format: in vivo, DBA/1 mice; details: for reduction of clinical arthritis score: QD, FIG. 5A; for reduction in disease clinical score (AUC): FIG. 5B
MAP4K5 [3] = molecular target: T2, MAP4K5 (Homo sapiens (Human), UniProt Q9Y4K4); experiment: Kinase panel of 146 human kinases at 10 μM; format: biochemical
Source text: (§1) Kinome selectivity of compound 5 was further screened using a kinase panel of 146 human kinases representing all gene family members within the human kinome.

IRAK1 [4] = molecular target: T3, IRAK1 (Homo sapiens (Human), UniProt P51617); experiment: Kinase panel of 146 human kinases at 10 μM; format: biochemical
Source text: as §1

CK1γ2 = CK1γ2 (Homo sapiens (Human), UniProt P78368); experiment: Kinase panel of 146 human kinases at 10 μM; format: biochemical
Source text: as §1

NUAK1 = NUAK1 (Homo sapiens (Human), UniProt O60285); experiment: Kinase panel of 146 human kinases at 10 μM; format: biochemical
Source text: as §1

TAK1 [5] = molecular target: T1, TAK1; experiment: Kinase panel of 146 human kinases at 10 μM; format: biochemical
Source text: as §1
Target sequence in this assay (O43318 1-303): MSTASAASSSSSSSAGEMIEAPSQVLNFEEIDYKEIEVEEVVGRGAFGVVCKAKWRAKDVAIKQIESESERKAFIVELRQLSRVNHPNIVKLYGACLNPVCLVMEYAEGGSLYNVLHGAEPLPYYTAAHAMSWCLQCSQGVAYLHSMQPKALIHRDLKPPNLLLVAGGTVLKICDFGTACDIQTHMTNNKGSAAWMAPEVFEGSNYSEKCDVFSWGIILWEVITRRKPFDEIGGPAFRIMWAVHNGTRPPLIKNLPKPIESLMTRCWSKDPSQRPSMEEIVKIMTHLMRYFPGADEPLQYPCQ
Target sequence in this assay (Q15750 437-504 partner): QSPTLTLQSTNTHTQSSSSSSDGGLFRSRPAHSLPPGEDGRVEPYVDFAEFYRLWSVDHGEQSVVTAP

ULK2 [6] = molecular target: T4, ULK2 (Homo sapiens (Human), UniProt Q8IYT8); experiment: Kinase panel of 146 human kinases at 10 μM; format: biochemical
Source text: as §1

[7] = Pharmacokinetics after oral gavage in rats (plasma and urine, LC-MS); format: in vivo, Sprague Dawley rats
Procedure: All serum/drug samples were frozen and stored at −80° C., unless otherwise specified. […] This internal standard solution was used for tissue homogenization. LC-MS analysis was performed at the Duke Proteomics and Metabolomics Core Facility.

GCK = GCK (Homo sapiens (Human), UniProt Q12851); experiment: Dose-response of top 10 kinases (FIG. 1A); format: biochemical; details: read-out: half maximal inhibitory concentration (IC50) GCK
Procedure: (§2) Next, dose-response experiments of the top 10 kinases inhibited by compound 5 in the initial kinome screen were conducted as described in EXAMPLE 5. […] The top 10 kinases were selected in an initial kinome screen.

CAMKKβ-1 = CAMKKβ-1 (Homo sapiens (Human), UniProt Q96RR4); experiment: Dose-response of top 10 kinases (FIG. 1A); format: biochemical; details: read-out: half maximal inhibitory concentration (IC50) CAMKKβ-1
Procedure: as §2

MAP4K5 [8] = molecular target: T2, MAP4K5; experiment: Dose-response of top 10 kinases (FIG. 1A); format: biochemical; details: read-out: half maximal inhibitory concentration (IC50) MAP4K5
Procedure: as §2

IRAK1 [9] = molecular target: T3, IRAK1; experiment: Dose-response of top 10 kinases (FIG. 1A); format: biochemical; details: read-out: half maximal inhibitory concentration (IC50) IRAK1
Procedure: as §2

NUAK = NUAK (Homo sapiens (Human), UniProt O60285); experiment: Dose-response of top 10 kinases (FIG. 1A); format: biochemical; details: read-out: half maximal inhibitory concentration (IC50) NUAK
Procedure: as §2

MLK1 = MLK1 (Homo sapiens (Human), UniProt P80192); experiment: Dose-response of top 10 kinases (FIG. 1A); format: biochemical; details: read-out: half maximal inhibitory concentration (IC50) MLK1
Procedure: as §2

CSNK1G2 = CSNK1G2 (Homo sapiens (Human), UniProt P78368); experiment: Dose-response of top 10 kinases (FIG. 1A); format: biochemical; details: read-out: half maximal inhibitory concentration (IC50) CSNK1G2
Procedure: as §2

CLK2 = CLK2 (Homo sapiens (Human), UniProt P49760); experiment: Dose-response of top 10 kinases (FIG. 1A); format: biochemical; details: read-out: half maximal inhibitory concentration (IC50) CLK2
Procedure: as §2

TAK1 [10] = molecular target: T1, TAK1; experiment: Dose-response of top 10 kinases (FIG. 1A); format: biochemical; details: read-out: half maximal inhibitory concentration (IC50) TAK1
Procedure: as §2
Target sequence in this assay (O43318 1-303): as the sequence (O43318 1-303) above
Target sequence in this assay (Q15750 437-504 partner): as the sequence (Q15750 437-504 partner) above

ULK2 [11] = molecular target: T4, ULK2; experiment: Dose-response of top 10 kinases (FIG. 1A); format: biochemical; details: read-out: half maximal inhibitory concentration (IC50) ULK2
Procedure: as §2

Water solubility = format: physicochemical
[12] = tested on: Enbrel® refractory arthritis; experiment: Enbrel refractory CIA rheumatoid arthritis mouse model; format: in vivo, mice; details: twice daily PO after etanercept days 21-30; n=6; FIG. 4E
Source text: To that end, a recently developed pre-clinical model of Enbrel® refractory arthritis was utilized, in which mice develop neutralizing antibodies towards Enbrel® causing disease relapse mirroring patient populations. Using this model, mice (n=6) were initially treated with Enbrel® on days 21-30 until loss of efficacy (determined by an arthritic score of 1.5) around study days 29 to 31 showing the development of neutralizing antibodies and disease progression. At this point, a first treatment group was switched to once daily vehicle (DMSO, PO) from day 30 to day 36, and a second treatment group was switched to twice daily compound 5 (PO).

THP-1 human macrophages = experiment: Cytokine expression in THP-1 macrophages stimulated with LPS and IFNγ; format: cell-based; details: for attenuation (reduction) of TNF expression: 10 μM, LPS and IFNγ, FIG. 1C
Procedure: THP-1 cells were treated with 100 nM phorbol 12-myristate 13-acetate (PMA) for 72 hours in RPMI 1640X media. Cells were rested in PMA free media 24 hours prior to treatments. LPS (10 ng/mL) was used for pro-inflammatory stimulation.
THP-1 cells were treated with 10 μM of designated drug or vehicle (DMSO) and 24 hours after treatment, supernatant was added to Human Cytokine XL proteome array (R&D Systems) in accordance with manufacturer protocol. Chemiluminescence was used to visualize protein quantities.
To evaluate the anti-inflammatory effects of compounds 3, 5, and 6, THP-1 human macrophages were stimulated with LPS and IFNγ in the presence of TAK1 inhibitor (10 μM) or vehicle.

[13] = Maximum tolerated dose / 14-day oral toxicology study; format: in vivo; details: 5, 30, 50 and 100 mg/kg PO once daily, 14 days
Procedure: Maximum tolerated dose studies and toxicology of compound 5 further established the safety and tolerance of this compound. Here, mice were treated daily with compound 5 (PO) at 5, 30, 50 and 100 mg/kg dosing for […] consecutive days. Daily body weights were taken as well as clinical observations.
Next, and as further described in EXAMPLE 9, a 14-day toxicology study of orally administered compound 5 in CD-1 mice (n=4) was conducted, using daily oral doses of 5, 30, 50 and 100 mg/kg of compound 5. In this study, the change in body weight from baseline as well as the weight of various organs were measured.

[14] = Bioavailability of compound 1 (takinib); details: in vivo
[15] = 50 mg/kg IP, all joints, FIG. 3E

IRAK4, sequence (Q9NWZ3 whole entry): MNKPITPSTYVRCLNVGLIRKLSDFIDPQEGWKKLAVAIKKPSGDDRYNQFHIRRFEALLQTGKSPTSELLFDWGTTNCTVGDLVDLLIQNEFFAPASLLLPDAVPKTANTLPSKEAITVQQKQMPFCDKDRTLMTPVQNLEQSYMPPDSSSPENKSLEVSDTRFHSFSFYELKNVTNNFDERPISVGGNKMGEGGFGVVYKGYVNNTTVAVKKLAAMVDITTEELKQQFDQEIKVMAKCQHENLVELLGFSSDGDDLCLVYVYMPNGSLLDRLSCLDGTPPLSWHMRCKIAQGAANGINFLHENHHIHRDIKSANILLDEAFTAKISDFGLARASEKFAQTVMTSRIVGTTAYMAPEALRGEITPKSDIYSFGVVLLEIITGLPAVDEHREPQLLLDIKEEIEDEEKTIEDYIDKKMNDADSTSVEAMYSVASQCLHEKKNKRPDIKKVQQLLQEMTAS
T4 sequence (Q8IYT8 whole entry): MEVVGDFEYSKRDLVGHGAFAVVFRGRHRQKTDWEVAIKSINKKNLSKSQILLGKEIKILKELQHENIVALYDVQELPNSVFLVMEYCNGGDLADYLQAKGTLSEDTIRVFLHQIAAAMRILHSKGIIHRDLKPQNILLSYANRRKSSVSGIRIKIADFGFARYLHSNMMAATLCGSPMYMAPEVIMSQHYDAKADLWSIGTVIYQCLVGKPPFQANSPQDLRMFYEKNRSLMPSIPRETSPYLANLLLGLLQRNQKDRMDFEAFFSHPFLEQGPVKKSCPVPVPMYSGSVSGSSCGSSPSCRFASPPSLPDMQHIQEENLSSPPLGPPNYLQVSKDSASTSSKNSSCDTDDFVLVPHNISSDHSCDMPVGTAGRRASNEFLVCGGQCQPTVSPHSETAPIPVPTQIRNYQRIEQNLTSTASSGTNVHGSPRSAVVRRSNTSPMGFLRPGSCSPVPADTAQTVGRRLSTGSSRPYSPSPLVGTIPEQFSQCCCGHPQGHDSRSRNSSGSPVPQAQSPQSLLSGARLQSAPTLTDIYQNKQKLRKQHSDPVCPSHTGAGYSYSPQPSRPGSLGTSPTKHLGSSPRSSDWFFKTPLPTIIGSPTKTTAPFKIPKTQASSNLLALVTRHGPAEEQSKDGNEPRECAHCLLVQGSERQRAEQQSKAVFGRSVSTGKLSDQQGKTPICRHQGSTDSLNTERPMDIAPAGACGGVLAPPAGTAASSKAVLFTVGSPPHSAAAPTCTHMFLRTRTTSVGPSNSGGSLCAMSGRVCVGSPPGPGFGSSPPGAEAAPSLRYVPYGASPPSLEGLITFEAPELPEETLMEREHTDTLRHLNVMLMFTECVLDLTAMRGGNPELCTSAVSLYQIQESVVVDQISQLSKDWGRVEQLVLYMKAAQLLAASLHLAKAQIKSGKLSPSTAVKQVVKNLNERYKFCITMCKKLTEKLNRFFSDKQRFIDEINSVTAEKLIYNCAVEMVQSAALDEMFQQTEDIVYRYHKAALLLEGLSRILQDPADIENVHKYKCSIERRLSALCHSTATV
T3 sequence (P51617 whole entry): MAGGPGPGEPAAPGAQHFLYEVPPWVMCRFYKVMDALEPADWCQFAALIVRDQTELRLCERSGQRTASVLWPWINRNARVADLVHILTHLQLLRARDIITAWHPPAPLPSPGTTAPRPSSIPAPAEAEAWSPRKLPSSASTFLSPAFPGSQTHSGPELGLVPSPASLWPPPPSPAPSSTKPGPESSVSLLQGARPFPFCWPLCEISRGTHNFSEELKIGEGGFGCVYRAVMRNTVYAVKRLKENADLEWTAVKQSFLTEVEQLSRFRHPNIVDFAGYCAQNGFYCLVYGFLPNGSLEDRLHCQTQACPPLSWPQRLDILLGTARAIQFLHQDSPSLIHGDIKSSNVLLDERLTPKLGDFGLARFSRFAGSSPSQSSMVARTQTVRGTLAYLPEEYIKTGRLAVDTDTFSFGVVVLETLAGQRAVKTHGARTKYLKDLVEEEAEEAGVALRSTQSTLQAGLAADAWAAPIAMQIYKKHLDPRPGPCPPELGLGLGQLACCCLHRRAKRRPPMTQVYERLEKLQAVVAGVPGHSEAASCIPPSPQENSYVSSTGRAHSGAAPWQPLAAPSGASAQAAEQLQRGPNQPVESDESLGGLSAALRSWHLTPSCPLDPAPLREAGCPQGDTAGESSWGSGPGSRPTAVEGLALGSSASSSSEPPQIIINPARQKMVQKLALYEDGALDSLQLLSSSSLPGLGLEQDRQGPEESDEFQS
T2 sequence (Q9Y4K4 whole entry): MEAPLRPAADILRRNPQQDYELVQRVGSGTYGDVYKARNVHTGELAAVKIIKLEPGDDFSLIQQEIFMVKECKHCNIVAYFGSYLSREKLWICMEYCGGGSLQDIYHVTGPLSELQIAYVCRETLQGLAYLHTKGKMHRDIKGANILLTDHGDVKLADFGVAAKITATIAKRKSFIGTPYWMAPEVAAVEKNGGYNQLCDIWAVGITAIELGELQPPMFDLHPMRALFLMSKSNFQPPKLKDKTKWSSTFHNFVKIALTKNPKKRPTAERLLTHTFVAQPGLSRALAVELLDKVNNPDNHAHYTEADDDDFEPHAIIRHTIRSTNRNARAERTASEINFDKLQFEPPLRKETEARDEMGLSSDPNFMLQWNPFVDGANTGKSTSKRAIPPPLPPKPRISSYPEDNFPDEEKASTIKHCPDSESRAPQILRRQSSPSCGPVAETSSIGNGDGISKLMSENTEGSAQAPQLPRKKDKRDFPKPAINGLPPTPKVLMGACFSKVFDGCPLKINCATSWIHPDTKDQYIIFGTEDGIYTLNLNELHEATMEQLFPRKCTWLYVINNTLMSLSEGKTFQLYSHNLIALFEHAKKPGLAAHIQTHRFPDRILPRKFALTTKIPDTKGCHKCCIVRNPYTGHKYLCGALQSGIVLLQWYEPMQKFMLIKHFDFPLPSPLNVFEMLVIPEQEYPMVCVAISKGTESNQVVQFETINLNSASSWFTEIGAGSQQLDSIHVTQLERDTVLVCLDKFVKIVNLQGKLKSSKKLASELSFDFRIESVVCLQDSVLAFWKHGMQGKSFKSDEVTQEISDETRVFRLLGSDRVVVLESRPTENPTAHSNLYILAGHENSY
MLK1, sequence (P80192 whole entry): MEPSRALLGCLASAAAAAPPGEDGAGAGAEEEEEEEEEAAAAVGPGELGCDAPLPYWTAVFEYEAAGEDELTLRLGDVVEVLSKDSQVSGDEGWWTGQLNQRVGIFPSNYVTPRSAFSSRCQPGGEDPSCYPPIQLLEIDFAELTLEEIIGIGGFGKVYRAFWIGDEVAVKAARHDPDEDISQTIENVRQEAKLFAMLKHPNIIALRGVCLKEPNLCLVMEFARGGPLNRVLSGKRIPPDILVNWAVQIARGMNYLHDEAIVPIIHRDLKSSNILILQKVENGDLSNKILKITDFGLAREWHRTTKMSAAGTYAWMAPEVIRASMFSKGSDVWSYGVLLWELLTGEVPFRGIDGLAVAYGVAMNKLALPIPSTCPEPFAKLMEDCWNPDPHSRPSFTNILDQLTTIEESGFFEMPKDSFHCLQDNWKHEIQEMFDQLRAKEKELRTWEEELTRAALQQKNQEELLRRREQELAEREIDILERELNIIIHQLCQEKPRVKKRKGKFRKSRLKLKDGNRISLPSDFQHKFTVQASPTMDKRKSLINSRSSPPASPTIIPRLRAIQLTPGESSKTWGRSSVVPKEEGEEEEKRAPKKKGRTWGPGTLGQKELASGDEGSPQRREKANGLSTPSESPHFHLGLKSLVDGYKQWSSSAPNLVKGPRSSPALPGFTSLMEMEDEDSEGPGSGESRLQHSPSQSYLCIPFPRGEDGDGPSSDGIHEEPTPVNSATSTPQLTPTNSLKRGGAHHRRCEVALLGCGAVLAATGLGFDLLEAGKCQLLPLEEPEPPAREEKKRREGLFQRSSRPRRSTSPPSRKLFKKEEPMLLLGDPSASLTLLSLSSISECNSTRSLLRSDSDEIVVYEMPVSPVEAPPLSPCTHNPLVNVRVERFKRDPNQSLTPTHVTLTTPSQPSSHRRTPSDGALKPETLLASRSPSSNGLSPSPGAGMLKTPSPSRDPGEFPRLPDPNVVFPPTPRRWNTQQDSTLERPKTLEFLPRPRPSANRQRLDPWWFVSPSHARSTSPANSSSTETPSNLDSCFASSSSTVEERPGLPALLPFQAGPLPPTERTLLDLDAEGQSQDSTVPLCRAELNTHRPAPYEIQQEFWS

CCCn1/c(=N/C(=O)c2cccc(C(N)=O)c2)[nH]c2ccc(CO)cc21 [Compound 4]
IC50 (TAK1 [1]; read-out: IC50 (TAK1)): 2.6 nM
IC50 (IRAK4; read-out: IC50 (IRAK4)): 48 nM
Ratio IC50 (IRAK4)/IC50 (TAK1) (IRAK4): 18

etanercept
reduction in clinical arthritis scores vs vehicle ([2]; 10 mg/kg, IP, once daily, FIG. 4B): 57%

CCCn1/c(=N/C(=O)c2cccc(C(N)=O)c2)[nH]c2ccc(CN3CCCCC3)cc21 [Compound 5]
IC50 (TAK1 [1]; selectivity screening, FIG. 1B, read-out: TAK1 inhibition IC50): 2.5 nM
reduction of clinical arthritis score ([2]; 10 mg/kg, PO): 18%
reduction of clinical arthritis score ([2]; 30 mg/kg, PO): 35%
reduction of AUC of clinical arthritis scores vs disease control ([2]; 50 mg/kg IP, QD days 21-26, Q2D days 27-36, FIG. 3C): 85%
disease incidence on day 36 ([2]; 50 mg/kg IP, QD days 21-26, Q2D days 27-36, n=12): 75%
reduction of bone resorption score vs vehicle [2, 15]: 87%
reduction of cartilage damage score vs vehicle [2, 15]: 76%
reduction of inflammation score vs vehicle [2, 15]: 62%
reduction of pannus score vs vehicle [2, 15]: 86%
reduction of periosteal bone formation score vs vehicle [2, 15]: 93%
reduction in clinical arthritis scores vs vehicle ([2]; 50 mg/kg, IP, once daily, FIG. 4A): 85%
reduction in disease clinical score (AUC) ([2]; IP dosing (25 mg/kg, QD)): 36%
reduction in disease clinical score (AUC) ([2]; oral dosing (PO)): 35%
enzymatic activity of MAP4K5 (MAP4K5 [3]): < 15 % enzymatic activity
enzymatic activity of IRAK1 (IRAK1 [4]): < 15 % enzymatic activity
enzymatic activity of CK1γ2 (CK1γ2): < 15 % enzymatic activity
enzymatic activity of NUAK1 (NUAK1): < 15 % enzymatic activity
enzymatic activity of TAK1 (TAK1 [5]): < 15 % enzymatic activity
enzymatic activity of ULK2 (ULK2 [6]): < 15 % enzymatic activity
IC50 (IRAK4; read-out: IC50 (IRAK4)): 2500 nM
IC50 (IRAK4; selectivity screening, FIG. 1B, read-out: IRAK4 inhibition IC50): 2510 nM
time of Cmax post gavage ([7]; 50 mg/kg oral gavage): 2 h
time post gavage up to which M (μM) plasma concentration was shown ([7]; 50 mg/kg oral gavage): 8 to 12 h
peak in urine concentration ([7]; 50 mg/kg oral gavage, at 12 hours): 100 µM
Cmax ([7]; male, Sprague Dawley, rat, plasma, 50 mg/kg oral gavage): 1890 nM
oral bioavailability ([7]; rat, in vivo, po): high
IC50 (GCK): 33 nM
IC50 (CAMKKβ-1): 1280 nM
IC50 (MAP4K5 [8]): 124 nM
IC50 (IRAK1 [9]): 264 nM
IC50 (NUAK): 270 nM
IC50 (MLK1): 5.59 µM
IC50 (CSNK1G2): 809 nM
IC50 (CLK2): 29 nM
IC50 (TAK1 [10]): 8 nM
IC50 (ULK2 [11]): 63 nM
water solubility (Water solubility): good
reduction of arthritis score vs etanercept-refractory animals switched to vehicle [12]: 40%
attenuation (reduction) of TNF expression (THP-1 human macrophages): 11 fold
blood chemistries or complete blood counts [13]: no significant differences
body weight change [13]: no significant weight loss
morbidity [13]: no signs of morbidity
relative organ weights (liver, heart, thymus, kidneys, brain, spleen) [13]: no significant weight loss; also recorded: did not cause any significant or dose-dependent changes; also recorded: not cause a significant or dose-dependent change

CN(Cc1cnc2nc(N)nc(N)c2n1)c1ccc(C(=O)N[C@@H](CCC(=O)O)C(=O)O)cc1 [methotrexate, reference compound]
reduction in clinical arthritis scores vs vehicle ([2]; 1 mg/kg, PO, once daily, FIG. 4C): 72%

NC(=O)c1cccc(C(=O)/N=c2\[nH]c3ccc(CO)cc3n2[C@H]2CC[C@H](O)CC2)c1 [Compound 7]
IC50 (TAK1 [1]; read-out: IC50 (TAK1)): 1.6 nM
IC50 (IRAK4): 8.2 nM
Ratio IC50 (IRAK4)/IC50 (TAK1) (IRAK4): 5

NC(=O)c1cccc(C(=O)/N=c2\[nH]c3cc(CN4CCCCC4)ccc3n2C2CCC(O)CC2)c1 (stereo not shown) [Compound 3]
IC50 (TAK1 [1]; read-out: IC50 (TAK1)): 2.8 nM
IC50 (IRAK4; read-out: IC50 (IRAK4)): 8.5 nM
Ratio IC50 (IRAK4)/IC50 (TAK1) (IRAK4): 3
urine levels ([7]; 50 mg/kg oral gavage): M urine levels up to 24 hours post gavage
plasma levels across all timepoints ([7]; 50 mg/kg oral gavage, 1-24 hours): low nM
attenuation (reduction) of TNF expression (THP-1 human macrophages): 2.5 fold

C[C@@H]1CCN(C(=O)CC#N)C[C@@H]1N(C)c1ncnc2[nH]ccc12 [tofacitinib, reference compound]
reduction in clinical arthritis scores vs vehicle ([2]; 30 mg/kg, PO, twice daily (BID), FIG. 4D): 50%
TNF secretion (THP-1 human macrophages; LPS and IFNγ challenge, FIG. 1D): minimal to no TNF reduction

takinib [Compound 1, reference compound]
IC50 (TAK1 [1]; read-out: IC50 (TAK1)): 9 nM
affinity for IRAK4 less than TAK1 (IRAK4): ~12 fold
IC50 (IRAK4; read-out: IC50 (IRAK4)): 120 nM
Ratio IC50 (IRAK4)/IC50 (TAK1) (IRAK4): 13
bioavailability [14]: low
